{"source": "patent US20190307886A1", "about": "“A CO-AMORPHOUS FORM OF A SUBSTANCE AND A PROTEIN” (University of Copenhagen, priority 2016, published 2019)", "type_in_all_cases": "physicochemical", "key": {"[1]": {"assay": "Intrinsic dissolution rate from powder compacts", "settings": "for y (mg cm^−2 min^−1), line equation of intrinsic dissolution testing; slope = intrinsic dissolution rate: Table 2a, 0.1 M phosphate buffer pH 7.2, 37° C., 50 rpm; for intrinsic dissolution rate (IDR): phosphate buffer pH 7.2, 37° C.", "quoted_text": "The intrinsic dissolution rate (IDR) was determined from powder compacts obtained with a hydraulic press (PerkinElmer, Hydraulische Presse Model IXB-102-9, Ueberlingen, Germany). Ball-milled powders of pure drug and spray dried powders of drug-protein mixtures were compressed into tablets. Tablets of 150 mg were directly compressed into stainless steel cylinders that served as intrinsic dissolution sample holders at a pressure of 124.9 MPa for 45 secs. […] These cylinders were then placed in 900 ml of 0.1 M phosphate buffer (pH 7.2, 37° C.) dissolution medium and stirred using a magnetic bar at a rotation speed of 50 rpm. At predetermined time points (1, 5, 10, 15, 20, 25 and 30 min, some IDRs were only determined up to 20 min), 5 ml aliquots were withdrawn and immediately replaced with dissolution buffer. The obtained samples were then analyzed using UV spectrophotometer (see below). All dissolution experiments were conducted in triplicate."}, "[2]": {"assay": "Physical stability on storage over silica gel at room temperature, XRPD", "settings": "recrystallization shown by XRPD", "procedure": "The molecular interactions of the drug substance-WPI/WPH mixtures were investigated by XRPD using an X'Pert PANanalytical PRO X-ray diffractometer (PANanalytical, Almelo, The Netherlands) with Cukα radition: 1.54187 Å, current: 40 mA and acceleration voltage: 45 kV. Each of the co-amorphous forms obtained either by spray drying or ball milling were scanned (scan rate of 0.067° 2θ/s and step size of 0.026°) with reflectance mode between 2° and 35° 2θ. The collected data was analysed using X'Pert PANanalytical Collector software (PANanalytical, Almelo, The Netherlands).\nAll samples were stored in a desiccator over silica gel (0% relative humidity) at room temperature and a physical stability study was performed for all SD samples. Each sample was analyzed by XRPD at day 0 and subsequently once every month thereafter."}, "[3]": {"assay": "Thermogravimetric analysis for measurement of residual moisture", "settings": "Table 1a; amorphous drugs and spray dried forms with WPI, WPH, WPI components, digested WPI, PVP", "procedure": "Thermogravimetric analysis for measurement of residual moisture:\nThermogravimetric analysis was performed on a TGA Discovery instrument (TA Instruments, New Castle, USA). Samples of 10 mg were placed in a platinum pan and sealed with a lid and heated from 25 to 300° C. at 10° C./min. Resulting weight-temperature diagrams were analyzed using Trios software (TA Instruments, New Castle, USA) to calculate the weight loss between 25 and 150° C."}, "[4]": {"assay": "Powder dissolution (USP II apparatus)", "procedure": "Powder dissolution was performed in USP type II apparatus. […] The dissolution paddles were rotated at 50 rpm […] taking samples out at 1, 3, 5, 7, 10, 15, 20, 25, 30, 35, 40, 50, 60 and 120 mins. Each sample of 5 ml was taken out and replaced by dissolution medium. To separate powders from medium, the samples were filtered through a 0.45 μm syringe filter (Qmax, Frisinette ApS) and the first 2 ml was discarded to minimize losses due to adsorption. The samples were examined using UV Vis to analyze the drug concentration."}}}
{"smiles": "CC(=O)Nc1ccc(O)cc1", "note": "[A PAR, paracetamol]", "values": [{"measurement": "y (mg cm^−2 min^−1), line equation of intrinsic dissolution testing; slope = intrinsic dissolution rate", "setting": "[1]", "result": "y = 0.201x + 4.5947 mg cm^−2 min^−1"}, {"measurement": "intrinsic dissolution rate (IDR)", "setting": "[1]; listed as ball milled amorphous PAR", "result": 0.201, "unit": "mg cm^−2 min^−1"}, {"measurement": "fold increase in IDR compared to crystalline PAR", "setting": "[1]; vs C PAR", "result": 1.2, "unit": "fold"}, {"measurement": "time found to be stable (in words)", "setting": "[2]", "result": "less than a week"}]}
{"smiles": "NS(=O)(=O)c1cc(C(=O)O)c(NCc2ccco2)cc1Cl", "note": "[A FUR, furosemide]", "values": [{"measurement": "TGA (residual moisture content in %)", "setting": "[3]", "result": "3.6 ± 0.3", "unit": "%"}, {"measurement": "time found to be stable (in words)", "setting": "[2]", "result": "less than a week"}]}
{"smiles": "COc1ccc2c(c1)c(CC(=O)O)c(C)n2C(=O)c1ccc(Cl)cc1", "note": "[C IND, indomethacin]", "values": [{"measurement": "y (mg cm^−2 min^−1), line equation of intrinsic dissolution testing; slope = intrinsic dissolution rate", "setting": "[1]", "result": "y = 0.0787x + 4.006 mg cm^−2 min^−1"}, {"measurement": "intrinsic dissolution rate (IDR)", "setting": "[1]; listed as crystalline IND", "result": 0.0787, "unit": "mg cm^−2 min^−1"}]}
{"smiles": "CC(=O)Nc1ccc(O)cc1", "note": "[C PAR, paracetamol]", "values": [{"measurement": "y (mg cm^−2 min^−1), line equation of intrinsic dissolution testing; slope = intrinsic dissolution rate", "setting": "[1]", "result": "y = 0.1632x + 2.3462 mg cm^−2 min^−1"}, {"measurement": "intrinsic dissolution rate (IDR)", "setting": "[1]; listed as crystalline PAR", "result": 0.1632, "unit": "mg cm^−2 min^−1"}]}
{"smiles": "COc1ccccc1OCCNCC(O)COc1cccc2[nH]c3ccccc3c12", "note": "(centres unmarked) [A CAR, carvedilol]", "values": [{"measurement": "TGA (residual moisture content in %)", "setting": "[3]", "result": "3.1 ± 0.3", "unit": "%"}, {"measurement": "y (mg cm^−2 min^−1), line equation of intrinsic dissolution testing; slope = intrinsic dissolution rate", "setting": "[1]", "result": "y = 0.0214x + 2.973 mg cm^−2 min^−1"}, {"measurement": "intrinsic dissolution rate (IDR)", "setting": "[1]; listed as ball milled amorphous CAR", "result": 0.0214, "unit": "mg cm^−2 min^−1"}, {"measurement": "fold increase in IDR compared to crystalline CAR", "setting": "[1]; vs C CAR", "result": 1.8, "unit": "fold"}, {"measurement": "time found to be stable (in words)", "setting": "[2]", "result": "less than a week"}]}
{"smiles": "COc1ccc2c(c1)c(CC(=O)O)c(C)n2C(=O)c1ccc(Cl)cc1", "note": "[A IND, indomethacin]", "values": [{"measurement": "TGA (residual moisture content in %)", "setting": "[3]", "result": "3.2 ± 0.4", "unit": "%"}, {"measurement": "y (mg cm^−2 min^−1), line equation of intrinsic dissolution testing; slope = intrinsic dissolution rate", "setting": "[1]", "result": "y = 0.1333x + 4.5538 mg cm^−2 min^−1"}, {"measurement": "intrinsic dissolution rate (IDR)", "setting": "[1]; listed as amorphous ball milled IND", "result": 0.1333, "unit": "mg cm^−2 min^−1"}, {"measurement": "powder dissolution (comparison in words)", "setting": "[4]; USP type II, 200 mg in 50 ml phosphate buffer pH 7.2, 50 rpm", "result": "more dissolution than the PM IND-WPI"}, {"measurement": "solubility of IND in its amorphous state", "setting": "[4]; phosphate buffer pH 7.2, vs crystalline IND", "result": "more than double the value crystalline IND"}, {"measurement": "time found to be stable (in words)", "setting": "[2]", "result": "less than a week"}]}
{"smiles": "COc1ccccc1OCCNCC(O)COc1cccc2[nH]c3ccccc3c12", "note": "(centres unmarked) [C CAR, carvedilol]", "values": [{"measurement": "y (mg cm^−2 min^−1), line equation of intrinsic dissolution testing; slope = intrinsic dissolution rate", "setting": "[1]", "result": "y = 0.0117x + 2.8082 mg cm^−2 min^−1"}, {"measurement": "intrinsic dissolution rate (IDR)", "setting": "[1]; listed as crystalline CAR", "result": 0.0117, "unit": "mg cm^−2 min^−1"}]}
